Test results from ChEMBL document CHEMBL1145887, “Large dimeric ligands with favorable pharmacokinetic properties and peroxisome proliferator-activated receptor agonist activity in vitro and in vivo” (J Med Chem, 2003).

Assays:
[1] = system: Mus musculus; experiment: In vivo nonfasting blood glucose in db/db mice after oral treatment; type: functional
[2] = system: Mus musculus; experiment: In vivo nonfasting triglyceride in db/db mice after oral treatment; type: functional
[3] = organism: Mus musculus; experiment: Area under blood glucose time curve after oral glucose test in mice; type: functional
[4] = system: Mus musculus; experiment: In vivo insulin effect in db/db mice after oral treatment; type: functional
[5] = biological target: T1, Peroxisome proliferator-activated receptor alpha (Homo sapiens) (UniProt Q07869); experiment: (§1) In vitro transactivation of human Peroxisome proliferator activated receptor alpha (hPPARalpha); parameters: concentration or dose not given beside the values
T1 sequence (whole entry): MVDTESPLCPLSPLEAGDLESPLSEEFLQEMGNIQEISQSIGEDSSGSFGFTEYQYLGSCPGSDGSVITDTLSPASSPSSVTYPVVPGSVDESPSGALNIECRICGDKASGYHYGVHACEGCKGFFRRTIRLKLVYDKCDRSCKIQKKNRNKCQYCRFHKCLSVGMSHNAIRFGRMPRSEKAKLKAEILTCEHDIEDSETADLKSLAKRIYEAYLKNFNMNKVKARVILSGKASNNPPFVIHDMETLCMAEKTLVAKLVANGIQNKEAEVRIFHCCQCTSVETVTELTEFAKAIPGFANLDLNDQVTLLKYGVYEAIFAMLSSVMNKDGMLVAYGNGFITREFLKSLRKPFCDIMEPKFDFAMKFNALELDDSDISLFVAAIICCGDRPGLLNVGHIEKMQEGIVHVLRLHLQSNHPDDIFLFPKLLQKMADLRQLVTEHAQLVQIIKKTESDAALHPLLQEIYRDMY

[6] = biological target: T2, Peroxisome proliferator-activated receptor alpha (Rattus norvegicus) (UniProt P37230); experiment: (§2) In vitro transactivation of rat Peroxisome proliferator activated receptor alpha; parameters: concentration or dose not given beside the values
T2 sequence (whole entry): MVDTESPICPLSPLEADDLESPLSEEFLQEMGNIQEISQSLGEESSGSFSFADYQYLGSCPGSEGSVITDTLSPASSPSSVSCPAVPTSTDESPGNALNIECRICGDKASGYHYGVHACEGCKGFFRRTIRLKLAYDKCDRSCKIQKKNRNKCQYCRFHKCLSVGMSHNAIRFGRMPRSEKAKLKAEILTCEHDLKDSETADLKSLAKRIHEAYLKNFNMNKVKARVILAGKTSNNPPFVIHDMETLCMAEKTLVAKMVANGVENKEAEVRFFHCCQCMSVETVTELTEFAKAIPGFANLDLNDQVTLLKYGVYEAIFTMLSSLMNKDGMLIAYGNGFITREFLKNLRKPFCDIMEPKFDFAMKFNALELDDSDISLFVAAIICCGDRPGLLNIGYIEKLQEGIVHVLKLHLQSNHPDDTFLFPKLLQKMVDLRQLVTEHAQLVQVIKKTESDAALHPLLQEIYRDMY

[7] = Partition coefficient (logP); type: physicochemical; settings: octanol/water
[8] = biological target: T3, Peroxisome proliferator-activated receptor alpha (Rattus norvegicus, UniProt P37230); experiment: as §2
T3 sequence (P37230 whole entry): T2 sequence (whole entry)

[9] = biological target: T4, Peroxisome proliferator-activated receptor alpha (Homo sapiens, UniProt Q07869); experiment: as §1
T4 sequence (Q07869 whole entry): T1 sequence (whole entry)

[10] = Oral half-life in rat after peroral administration; type: ADME, organism-based; settings: in vivo
[11] = biological target: T5, Peroxisome proliferator-activated receptor gamma (Homo sapiens, UniProt P37231)
T5 sequence (P37231 whole entry): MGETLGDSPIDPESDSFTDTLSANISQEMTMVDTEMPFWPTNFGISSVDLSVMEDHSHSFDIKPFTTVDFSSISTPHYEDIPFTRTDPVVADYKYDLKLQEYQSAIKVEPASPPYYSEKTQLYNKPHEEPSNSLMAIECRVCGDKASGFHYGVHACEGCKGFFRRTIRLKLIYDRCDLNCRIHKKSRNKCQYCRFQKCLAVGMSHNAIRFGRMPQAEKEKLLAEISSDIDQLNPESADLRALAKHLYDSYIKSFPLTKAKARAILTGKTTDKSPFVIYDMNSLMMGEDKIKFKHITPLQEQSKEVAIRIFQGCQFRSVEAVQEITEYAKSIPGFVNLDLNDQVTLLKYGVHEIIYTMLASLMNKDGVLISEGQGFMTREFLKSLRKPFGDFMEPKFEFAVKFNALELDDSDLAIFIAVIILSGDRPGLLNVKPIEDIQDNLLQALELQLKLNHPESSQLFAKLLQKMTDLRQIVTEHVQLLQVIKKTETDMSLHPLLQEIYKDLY
Description: In vitro transactivation of human Peroxisome proliferator activated receptor gamma

[12] = Volume of distribution during steady state in rat; settings: in vivo
[13] = Oral bioavailability in rat; type: ADME, organism-based; settings: in vivo
[14] = Maximum plasma concentration in rat after peroral administration; type: ADME, organism-based; parameters: route oral; settings: po
[15] = biological target: T6, Peroxisome proliferator-activated receptor delta (Homo sapiens, UniProt Q03181); experiment: In vitro transactivation of human Peroxisome proliferator activated receptor delta (hPPARdelta)
T6 sequence (Q03181 whole entry): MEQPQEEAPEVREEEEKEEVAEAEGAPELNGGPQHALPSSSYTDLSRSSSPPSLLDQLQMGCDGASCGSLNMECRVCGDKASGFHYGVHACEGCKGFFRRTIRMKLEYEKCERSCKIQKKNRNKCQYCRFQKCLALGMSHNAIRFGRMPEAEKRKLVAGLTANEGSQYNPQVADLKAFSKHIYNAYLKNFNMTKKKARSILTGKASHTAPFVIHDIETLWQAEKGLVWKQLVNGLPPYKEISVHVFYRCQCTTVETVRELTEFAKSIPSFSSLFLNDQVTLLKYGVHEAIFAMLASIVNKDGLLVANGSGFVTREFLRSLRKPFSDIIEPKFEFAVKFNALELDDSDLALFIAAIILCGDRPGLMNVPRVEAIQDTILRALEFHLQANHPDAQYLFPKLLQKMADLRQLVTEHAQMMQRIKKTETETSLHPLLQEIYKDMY

[16] = Area under the plasma concentration-time curve in rat after peroral administration; type: ADME, organism-based; settings: po
[17] = Clearance in rat; type: ADME, organism-based; settings: in vivo

| Compound | Fold activation [5] | Fold activation [6] | logP [7] | EC50 [8] | EC50 [9] | half-life [10] | EC50 [11] | Vd [12] | bioavailability [13] | EC50 [15] | AUC [16] | clearance [17] | ED50 [1] | Max reduction [1] | ED50 [2] | Max reduction [2] | Max reduction [3] | ED50 ([3]; Mus musculus, Blood, po) | ED50 [4] | Max reduction [4] | further results |
| --- | --- | --- | --- | --- | --- | --- | --- | --- | --- | --- | --- | --- | --- | --- | --- | --- | --- | --- | --- | --- | --- |
| CCc1ccc(CCOc2ccc(CC3SC(=O)NC3=O)cc2)nc1 (stereo not drawn) [PIOGLITAZONE] |  |  |  |  |  |  |  |  |  |  |  |  | 2.6 mg/kg | 53% | 27 mg/kg | 21% | 39% | 12 mg/kg | 15 mg/kg | 54% |  |
| CC(C)(Oc1ccc(C(=O)c2ccc(Cl)cc2)cc1)C(=O)O [FENOFIBRIC ACID] | 265% | 331% | 4.27 | 131 µM | 32100 nM |  |  |  |  |  |  |  | > 300 mg/kg | 10% | > 300 mg/kg | 20% | 0% | > 300 mg/kg | 191 mg/kg | 32% |  |
| CN(CCOc1ccc(CC2SC(=O)NC2=O)cc1)c1ccccn1 (stereo not drawn) [ROSIGLITAZONE] |  |  | 1.91 |  |  | 182 min |  |  | 83% |  | 14600 ng·h/mL | 2.1 mL/min/kg | 0.9 mg/kg | 35% | 0.1 mg/kg | 58% | 16% | 0.8 mg/kg | 0.1 mg/kg | 43% |  |
| CCCCC[C@H](O)/C=C/[C@@H]1[C@H]2C/C(=C\CCCC(=O)O)C[C@H]2C[C@H]1O [CARBACYCLIN] | 79% | 15% |  |  | 960 nM |  | 7910 nM |  |  | 1.88 µM |  |  |  |  |  |  |  |  |  |  |  |

Second part, led by results:

| Fold activation [5] | Fold activation [6] | logP [7] | EC50 [8] | EC50 [9] | half-life [10] | EC50 [11] | Vd [12] | bioavailability [13] | EC50 [15] | AUC [16] | clearance [17] | Compound | ED50 [1] | Max reduction [1] | ED50 [2] | Max reduction [2] | Max reduction [3] | ED50 ([3]; Mus musculus, Blood, po) | ED50 [4] | Max reduction [4] | further results |
| --- | --- | --- | --- | --- | --- | --- | --- | --- | --- | --- | --- | --- | --- | --- | --- | --- | --- | --- | --- | --- | --- |
| 247% | 203% | 4.89 | 19.9 µM | 6690 nM | > 400 min | 320 nM | 0.08 L/kg | 58% | 2.08 µM | 9790 ng·h/mL | 0.04 mL/min/kg | CCO[C@@H](Cc1ccc(OC/C=C(\C)c2ccc(-c3ccc(/C(C)=C/COc4ccc(C[C@H](OCC)C(=O)O)cc4)cc3)cc2)cc1)C(=O)O | 0.2 mg/kg | 40% | 0.3 mg/kg | 60% | 53% | 0.4 mg/kg | 0.2 mg/kg | 91% | Cmax [14]: 23200 ng/mL |
| 123% | 112% | 3.87 | 0.7 µM | 67 nM | 122 min | 1130 nM | 0.14 L/kg | 89% | 6.9 µM | 62200 ng·h/mL | 0.54 mL/min/kg | CCO[C@@H](Cc1ccc(OC/C=C/C#Cc2ccccc2)cc1)C(=O)O | 0.4 mg/kg | 54% | 0.4 mg/kg | 57% | 45% | 1.2 mg/kg | 1 mg/kg | 92% | Cmax [14]: 4570 ng/mL |
| 158% | 166% | 4.5 | 11.1 µM | 490 nM | 213 min | 2030 nM | 0.16 L/kg | 100% | 9.55 µM | 116000 ng·h/mL | 0.49 mL/min/kg | CCO[C@@H](Cc1ccc(OC/C=C(\C)c2ccc(-c3ccccc3)cc2)cc1)C(=O)O | 0.2 mg/kg | 53% | 0.3 mg/kg | 65% | 50% | 0.3 mg/kg | 0.2 mg/kg | 95% | Cmax [14]: 9250 ng/mL |
| 173% | 210% | 4.81 | 6.3 µM | 710 nM | > 360 min | 110 nM | 0.04 L/kg | 100% | 2.17 µM | 111000 ng·h/mL | 0.1 mL/min/kg | CCO[C@@H](Cc1ccc(OC/C=C/C#Cc2ccc(C#C/C=C/COc3ccc(C[C@H](OCC)C(=O)O)cc3)cc2)cc1)C(=O)O | 0.4 mg/kg | 55% | 0.2 mg/kg | 56% | 52% | 0.9 mg/kg | 0.4 mg/kg | 90% | Cmax [14]: 27800 ng/mL |
|  |  |  | 2.1 µM |  |  |  |  |  |  |  |  | Cc1cccc(Nc2cc(Cl)nc(SCC(=O)O)n2)c1C [PIRINIXIC ACID] | 2.2 mg/kg | 36% | 3 mg/kg | 32% | 13% |  | 15 mg/kg | 45% | ED50 [3]: 4.7 mg/kg |
| 193% | 109% | 4.81 | 4.6 µM | 300 nM | 402 min | 1650 nM | 0.16 L/kg | 63% | 10.5 µM | 84900 ng·h/mL | 0.23 mL/min/kg | CCO[C@@H](Cc1ccc(OC/C=C/C#Cc2cccc(C#C/C=C/COc3ccc(C[C@H](OCC)C(=O)O)cc3)c2)cc1)C(=O)O | 0.9 mg/kg | 54% | 0.1 mg/kg | 46% | 60% | 0.5 mg/kg | 0.6 mg/kg | 86% | Cmax [14]: 7210 ng/mL |
